Measured values reported in patent publication US9314498B2, “Bacteriocin derived from Lactobacillus rhamnosus” (priority 2011, dated 2016).
Where no end group is shown, it is not given here.

Experiments:
[1] = tested on: Candida albicans GDH18 strain; assay: Antimicrobial activity (CFU count, percentage of living cells) against Candida albicans GDH18; format: cell-based; details: 37° C., 90 minutes, 1 mM phosphate buffer
Text: As the Candida, cariogenic bacteria and periodontal disease bacteria, the Candida albicans GDH18 strain, Streptococcus sobrinus B-13 strain, Streptococcus mutans NCTC10449 strain, Streptococcus mutans Ingbritt strain, Porphyromonas gingivalis Hudoi001 strain and Aggregatibacter actinomycetemcomitans Hudoe001 strain were used. The test strains were provided from Faculty of Dentistry, Hiroshima University, Japan, and Hiroshima University Dental Hospital.
(§1) The Candida albicans GDH18 strain was precultured using SD medium (Difco) at 37° C. for 24 hours under aerobic conditions. The Streptococcus sobrinus B-13 strain, Streptococcus mutans NCTC10449 strain and Streptococcus mutans Ingbritt strain were precultured using TSB medium (Difco) supplemented with 5% yeast extract (Difco) at 37° C. for 24 hours under aerobic conditions. The Porphyromonas gingivalis Hudoi001 strain and Aggregatibacter actinomycetemcomitans Hudoe001 strain were precultured using BHI medium (Difco) supplemented with hemin (5 mg/L) and vitamin K3 (1 mg/L) at 37° C. for 96 hours under anaerobic conditions with Anaero Pack System (Mitsubishi Gas Chemical Company, Inc.).
(§2) After the culture, the cells of the Candida, cariogenic bacteria and periodontal disease bacteria were collected by centrifugation at 1000×g, and washed twice with 1 mM phosphate buffer (pH 6.8). The cells were then suspended such that the final concentration was 1×10^8 cfu/ml or 1×10^7 cells/m. For suspension of the Streptococcus strains, ultrasonic treatment was also carried out.
(§3) Evaluation of the antimicrobial activity was carried out by the method by Edgerton and others (1998) with some modifications. With 20 mL of 1 mM phosphate buffer containing 0 to 25 μM Kog1 or Kog2 synthesized in Example 1, 20 μl of the suspension of the Candida albicans GDH18 strain cultured and prepared by the method described in the above Preparation Example was mixed, and the resulting mixture was incubated at 37° C. for 90 minutes with shaking. As a control, 20 ml of 1 mM phosphate buffer alone was used. The reaction was stopped by addition of 360 ml of YNB medium (Difco), and the number of colonies formed (colony forming units; CFUs) was counted together with the number of colonies in the control, to determine the percentage of living bacterial cells. That is, the equation of: (CFUs of suspension containing Kog1 or Kog2/CFU ml^−1 of control suspension)×100 was used to calculate the percentage.

[2] = tested on: Streptococcus sobrinus B-13 strain; assay: Antimicrobial activity against Streptococcus sobrinus B-13; format: cell-based; details: tested 0 to 100 μM
Method: [The procedure below names another organism; the source lists this organism under the same test.] as §1, §2
as §3, with “percentage. […]” for “percentage.”

[3] = well known basic antimicrobial peptide, literature; cited from earlier work
[4] = Measurement of the isoelectric point of the synthesized peptides; format: physicochemical; details: synthesized peptide
Text: Among antimicrobial peptides, hBD2 (human P-defensin-2 (see Eur J., 2002, Oral Sci. (109), 121-124)) is well known as a basic antimicrobial peptide, and has an isoelectric point of about 10. However, the isoelectric points of Kog1 and Kog2 of the embodiment 2 were higher than the isoelectric point of hBD2, and more similar to the isoelectric points of antimicrobial peptides derived from mammals. Thus, Kog1 and Kog2 were confirmed to have less cytotoxicity.

[5] = tested on: Streptococcus mutans NCTC10449 strain; assay: Antimicrobial activity against Streptococcus mutans NCTC10449; format: cell-based; details: 0 to 100 μM, FIG. 4
[6] = tested on: Streptococcus mutans Ingbritt strain; assay: Antimicrobial activity against Streptococcus mutans Ingbritt; format: cell-based; details: 0 to 100 μM, FIG. 5
[7] = tested on: Porphyromonas gingivalis Hudoi001 strain; assay: Antimicrobial activity against Porphyromonas gingivalis Hudoi001; format: cell-based; details: not shown in the figures
Method: as §1, §2
That is, it is assumed that, in Examples described in Patent Literature 1, the Lactobacillus rhamnosus KO3 strain expressed Kog1 and Kog2, and the expressed Kog1 and Kog2 exerted antimicrobial activity against the Porphyromonas gingivalis Hudoi001 strain. […]

[8] = tested on: Aggregatibacter actinomycetemcomitans Hudoe001 strain; assay: Antimicrobial activity against Aggregatibacter actinomycetemcomitans Hudoe001; format: cell-based; details: tested 0 to 50 μM
[9] = tested on: Porphyromonas gingivalis LPS (P.g-LPS) on RAW264.7 macrophage-like cells, ccl2; assay: LPS inactivation: ccl2 secretion of RAW264.7 cells (ELISA); format: cell-based, mouse; details: 100 ng/ml P.g-LPS preincubated 2 hours with 5, 10, 20 μM Kog1; as amount added increased
Method: (§4) As a medium, RPMI 1640 medium supplemented with 10% FBS (Fetal Bovine Serum) (Biological industries, Haemek, Israel), 1% antibiotic and 1% L-glutamine was used. In each well of a 24-well plate, 400 μl of the medium was placed, and 100,000 cells/well of mouse-derived RAW264.7 macrophage-like cells were inoculated thereto.
(§5) The bacteriocin Kog1 or Kog2, which was the same as in Example 1, was incubated in an Eppendorf tube under each of the following 4 conditions together with Porphyromonas gingivalis LPS (manufactured by InvivoGen) (hereinafter referred to as P.g-LPS) and the same medium as described above, at 37° C. under a gas phase of 5% CO2 for 2 hours: (1) 100 ng/ml P.g-LPS positive control; (2) 100 ng/ml P.g-LPS+5 μM Kog1 or Kog2; (3) 100 ng/ml P.g-LPS+10 μM Kog1 or Kog2; (4) 100 ng/ml P.g-LPS+20 μM Kog1 or Kog2.
(§6) The above-described medium placed in each well of the 24-well plate was removed using a pipetteman, and the medium in the Eppendorf tube for each of the 4 conditions described above was placed in the plate, followed by culturing the cells in the well plate at 37° C. under a gas phase of 5% CO2 for 12 hours. Thereafter, the culture supernatant was collected, and the amount of a chemokine ccl2 or the amount of a cytokine TNF-α secreted into the medium was quantified by the ELISA method by measuring the absorbance at 450 nm using a microplate reader. Since both ccl2 and TNF-α are involved in formation of inflammation, analysis of the relationship between the endotoxin LPS and the bacteriocins Kog1 and Kog2 is possible.

[10] = tested on: Porphyromonas gingivalis LPS (P.g-LPS) on RAW264.7 macrophage-like cells, TNF-α; assay: LPS inactivation: TNF-α secretion of RAW264.7 cells (ELISA); format: cell-based; details: 100 ng/ml P.g-LPS preincubated 2 hours with 5, 10, 20 μM Kog1; as amount added increased
Method: as §4, §5, §6

[11] = tested on: Candida albicans MYA274 strain; assay: Boiling experiment: antimicrobial activity (ATP) against Candida albicans MYA274; format: cell-based; details: concluded from supernatant boiled at 100° C. for 20 minutes; peptides not directly used
Method: In Example 9, antimicrobial activity against the Candida albicans MYA274 strain was investigated. The Candida albicans MYA274 strain was precultured in Sabouraud dextrose broth (Difco) at 37° C. for 24 hours, and then washed twice with MQ water, followed by being prepared such that OD600 is 0.3 (1.0×10^7 cells/ml).
In Example 9, the bacteriocin Kog1 or Kog2, or the Lactobacillus rhamnosus KO1 strain or KO3 strain, was not directly used. Instead, a lactic acid bacterium medium containing the Lactobacillus rhamnosus KO3 strain, 8020 yogurt (liquid type), was used in the experiment More specifically, the 8020 yogurt (liquid type) was prepared by adding the Lactobacillus rhamnosus KO3 strain at a concentration of 1% and YF-L811 starter at a concentration of 1% to the 15% skim milk+3% glucose medium, and then performing culture at 35° C. for 2 days.
Such 8020 yogurt (liquid type) was centrifuged to obtain a supernatant from which the lactic acid bacterium was removed (hereinafter referred to as Supernatant B). In the experiment, Supernatant B and a sample prepared by boiling Supernatant B at 100° C. for 20 minutes (hereinafter referred to as Supernatant Boil) were used. […]
In order to study changes in the antimicrobial activity by boiling, the following 3 kinds of samples were placed in a 24-well plate, and the value of ATP (pmol/L) after 24 hours of incubation at 37° C. was measured. […]

## JH8194: antimicrobial peptide of JP 3472821 B (amino acid sequence shown in SEQ ID NO: 7) (KRLFRRWQWRMKKY; Antimicrobial peptide)
[1]
  peptide concentration at which 100% of the strain was killed: 2.5 µM

## histatin 5: antimicrobial peptide derived from human saliva (amino acid sequence shown in SEQ ID NO: 6) (DSHEKRHHGYKRKFHEKHHSHRGY; Antimicrobial peptide)
[1]
  peptide concentration at which 100% of the strain was killed: 100 µM

## lactoferricin B: antimicrobial peptide derived from milk (amino acid sequence shown in SEQ ID NO: 5) (FKCRRWQWRMKKLGAPSITCVRRAF; Antimicrobial peptide)
[1]
  peptide concentration at which 100% of the strain was killed: 5 µM

## hBD2: human β-defensin-2, well known basic antimicrobial peptide (GIGDPVTCLKSGAICHPVFCPRRYKQIGTCGLPGTKCCKKP; ends and bridges not checked; cysteine pairing not given here; UniProt O15263 24-64, looked up) [reference compound]
[2]
  peptide concentration at which 100% of the strain was killed: 3.125 µM
[3]
  isoelectric point: about 10

## C[C@@H]1[C@H](O)[C@@H](C)/C=C/C=C/C=C/C=C/C=C/C=C/C=C/[C@H](O[C@@H]2O[C@H](C)[C@@H](O)[C@H](N)[C@@H]2O)C[C@@H]2O[C@](O)(C[C@@H](O)C[C@@H](O)[C@H](O)CC[C@@H](O)C[C@@H](O)CC(=O)O[C@H]1C)C[C@H](O)[C@H]2C(=O)O [amphotericin B]
[1]
  peptide concentration at which 100% of the strain was killed: 5 µM

## Kog1: peptide having the amino acid sequence shown in SEQ ID NO: 1, bacteriocin of Lactobacillus rhamnosus, synthesized by the tea-bag method (MAKARPSRPRPLTLRSLTAPAHAHKKWASRWILSMRLARVFGIEKPHG; listed as Lactobacillus rhamnosus)
[4]
  isoelectric point (pl): 12.90
[1]
  peptide concentration at which 100% of the strain was killed: 0.39 µM
[2]
  peptide concentration at which 100% of the strain was killed: 1.56 µM
[5]
  antimicrobial activity compared to the other antimicrobial peptides (hBD2, lysozyme): capable of killing a larger amount of Streptococcus mutans even at relatively low peptide concentration
[6]
  antimicrobial activity compared to the other antimicrobial peptides (hBD2, lysozyme): capable of killing a larger amount of Streptococcus mutans even at relatively low peptide concentration
[7]
  antimicrobial activity: capable of exerting antimicrobial activity
[8]
  peptide concentration at which 100% of the strain was killed: 3.13 µM
[9]
  amount of the chemokine ccl2 secreted: decreased
[10]
  amount of the cytokine TNF-α secreted: decreased
[11]
  heat resistance (antimicrobial activity after heating): still maintain antimicrobial activity after heating
